Ki data for three compounds are collected here from ChEMBL document CHEMBL4033758, “Systematic Data Mining Reveals Synergistic H3R/MCHR1 Ligands” (ACS Med Chem Lett, 2017).

SMILES strings stand for the structures.

The target of the experiment is Histamine H3 receptor (Homo sapiens, UniProt Q9Y5N1). Kind of experiment: Displacement of [3H]-N-alpha-methylhistamine from human H3R expressed in HEK293 cell membranes after 90 mins by liquid scintillation counting analysis. On the technique in general: In a radioligand displacement assay an active substance lowers the binding of a labelled ligand.
Chain of Histamine H3 receptor (Q9Y5N1 whole entry): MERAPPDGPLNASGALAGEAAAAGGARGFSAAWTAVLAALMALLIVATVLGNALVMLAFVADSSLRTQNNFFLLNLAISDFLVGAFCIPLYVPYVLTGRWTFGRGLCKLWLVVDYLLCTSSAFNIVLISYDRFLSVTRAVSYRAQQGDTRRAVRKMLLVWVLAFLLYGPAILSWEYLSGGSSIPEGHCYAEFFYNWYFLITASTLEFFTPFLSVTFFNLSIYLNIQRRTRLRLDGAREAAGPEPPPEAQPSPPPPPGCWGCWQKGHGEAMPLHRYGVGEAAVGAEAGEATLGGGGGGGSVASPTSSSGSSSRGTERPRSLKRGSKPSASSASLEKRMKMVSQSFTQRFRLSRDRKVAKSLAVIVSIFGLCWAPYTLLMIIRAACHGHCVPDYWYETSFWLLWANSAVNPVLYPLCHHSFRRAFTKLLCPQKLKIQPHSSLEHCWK

For orientation: Ki means a dissociation constant, usually derived from enzyme kinetics or from competition with a known ligand. A low value points to higher affinity. The compound `CCN1CCN(c2cc(C)c3cc(NC(=O)/C=C/c4ccc(OC)cc4)ccc3n2)CC1` registered an inhibitory constant (Ki) of 10.6 nM. `COc1cc(-n2cnc3cc(-c4ccc(Cl)cc4)sc3c2=O)ccc1OCCN1CCCC1`: the inhibition constant (Ki) came out at 208 nM. As to `O=c1cc(OCc2ccc(F)cc2)ccn1-c1ccc(OCCN2CCCC2)cc1`, the Ki is 517 nM.
